{"source": "paper PMC2994747", "about": "“Molecular Characterization of c-Abl/c-Src Kinase Inhibitors Targeted against Murine Tumour Progenitor Cells that Express Stem Cell Markers” (PLoS ONE, 2010)", "key": {"c-Abl": {"target": "T1, c-Abl (Homo sapiens, UniProt P00519)", "T1 construct": "His tag; purchased Upstate (Lake Placid, NY, USA)", "T1 sequence (P00519 whole entry)": "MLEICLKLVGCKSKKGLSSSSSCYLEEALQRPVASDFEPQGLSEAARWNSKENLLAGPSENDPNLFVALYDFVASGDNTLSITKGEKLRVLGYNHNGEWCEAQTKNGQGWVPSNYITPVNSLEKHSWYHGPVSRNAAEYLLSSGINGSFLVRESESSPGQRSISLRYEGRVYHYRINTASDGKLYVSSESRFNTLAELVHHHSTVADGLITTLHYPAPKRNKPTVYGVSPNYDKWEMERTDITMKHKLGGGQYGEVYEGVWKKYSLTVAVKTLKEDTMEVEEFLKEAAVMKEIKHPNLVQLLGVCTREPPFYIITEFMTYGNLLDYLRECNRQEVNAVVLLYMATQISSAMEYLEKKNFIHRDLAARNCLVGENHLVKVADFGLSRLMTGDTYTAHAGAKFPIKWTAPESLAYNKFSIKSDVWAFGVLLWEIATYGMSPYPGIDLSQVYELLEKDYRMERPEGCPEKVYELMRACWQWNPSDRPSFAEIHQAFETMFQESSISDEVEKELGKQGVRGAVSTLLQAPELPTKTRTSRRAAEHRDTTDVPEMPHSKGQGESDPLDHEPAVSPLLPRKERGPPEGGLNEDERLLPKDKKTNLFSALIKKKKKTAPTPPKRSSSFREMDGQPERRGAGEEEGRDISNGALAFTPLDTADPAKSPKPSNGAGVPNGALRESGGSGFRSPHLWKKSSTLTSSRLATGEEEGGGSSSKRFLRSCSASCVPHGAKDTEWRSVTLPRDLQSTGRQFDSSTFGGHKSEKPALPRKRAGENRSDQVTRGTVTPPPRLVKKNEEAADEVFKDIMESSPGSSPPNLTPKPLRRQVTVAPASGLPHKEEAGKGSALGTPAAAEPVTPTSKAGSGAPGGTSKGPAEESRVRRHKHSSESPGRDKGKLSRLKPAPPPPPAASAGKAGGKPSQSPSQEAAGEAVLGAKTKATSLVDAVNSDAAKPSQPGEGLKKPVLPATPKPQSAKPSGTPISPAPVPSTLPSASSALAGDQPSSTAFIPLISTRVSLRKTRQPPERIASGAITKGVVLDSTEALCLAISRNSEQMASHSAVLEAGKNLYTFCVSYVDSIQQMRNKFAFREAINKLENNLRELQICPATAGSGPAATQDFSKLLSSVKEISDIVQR", "test": "Abl filter-binding kinase assay (Abtide, [γ-32P]ATP)", "assay_type": "biochemical", "details": "isolated Abl; calculated from ID50, ATP-competitive; E0 0.005, S0 0.012 µM", "in_short": "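Radiometric filter read-out with recombinant His-tagged human enzymes. Src used 0.125 pmol enzyme and 0.160 pmol [γ-32P]ATP with kit peptide; Abl used Abtide, […], 0.012 µM ATP, pH 7.5 Tris, 30 °C for 10 min. Ki derived from ID50 via ATP-competitive equation accounting for enzyme concentration.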"}, "A2C12": {"test_system": "A2C12", "test": "Cell cycle analysis by flow cytometry", "assay_type": "cell-based, mouse", "details": "IC50 concentration, 96 h", "in_short": "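DNA-staining kit protocol for cell-cycle distribution: harvested cells go through a three-solution sequence, starting with 10 min at room temperature in solution A and ending at 4°C without light, then are analysed on a flow cytometer.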"}, "GammaA3": {"test_system": "GammaA3", "test": "Whole genome expression analysis (Affymetrix microarray)", "assay_type": "cell-based, mouse", "details": "IC50 concentration, 96 h", "description": "(§1) The cells were harvested and RNA was isolated using RNeasy Mini Kit (Qiagen, Hilden, Germany) according to the instructions of the manufacturer. The isolated RNA (250 ng) was processed further using standard protocols as described recently with the exception of the 3′ IVT Express Kit (Affymetrix, High Wycombe, UK) that was utilized according to instructions. Quality control of cRNA was done with the Agilent 2100 Bioanalyzer (Agilent Tech according to manufacturer's protocols. Following fragmentation, cRNA of each sample was hybridized to Affymetrix GeneChip® Mouse Genome 430 2.0 or Human Genome U133 Plus 2.0 and scanned with an Affymetrix 3000 7G scanner.\n(§2) The resultant data was normalized by Probe Logarithmic Intensity Error Estimation (PLIER) algorithm. Statistical analysis was carried out with the ArrayTrack software (National Center for Toxicological Research/FDA, Jefferson, AR, USA) using SAM algorithm."}, "A549": {"test_system": "A549", "test": "Whole genome expression analysis (Affymetrix microarray)", "assay_type": "cell-based, human", "details": "IC50 concentration, 96 h", "description": "as §1, §2"}, "CaCo2": {"test_system": "CaCo2", "test": "Whole genome expression analysis (Affymetrix microarray)", "assay_type": "cell-based, human", "details": "IC50 concentration, 96 h", "description": "as §1, §2"}, "HepG2": {"test_system": "HepG2", "test": "Whole genome expression analysis (Affymetrix microarray)", "assay_type": "cell-based, human", "details": "IC50 concentration, 96 h", "description": "as §1, §2"}}}
{"smiles": "Clc1cccc(Nc2nc(SC3CCCC3)nc3c2cnn3CC(Cl)c2ccccc2)c1", "note": "(centres unmarked) [Si135]", "values": [{"measurement": "Ki", "setting": "c-Abl", "result": 120, "unit": "nM"}, {"measurement": "Cells in G1 phase", "setting": "A2C12", "result": 54.5, "unit": "%"}, {"measurement": "Cells in G2 phase", "setting": "A2C12", "result": 12.6, "unit": "%"}, {"measurement": "Cells in S phase", "setting": "A2C12", "result": 33, "unit": "%"}, {"measurement": "Significantly differentially regulated genes, downregulated (number)", "setting": "GammaA3; SAM FDR<0.01, FC>2", "result": 66}, {"measurement": "Significantly differentially regulated genes, upregulated (number)", "setting": "GammaA3; SAM FDR<0.01, FC>2", "result": 79}, {"measurement": "Actg2 gene expression", "setting": "GammaA3; vs control", "result": "-1.23 log2 of fold change"}, {"measurement": "Ccl5 gene expression", "setting": "GammaA3; vs control", "result": "3.04 log2 of fold change"}, {"measurement": "Cenpa gene expression", "setting": "GammaA3; vs control", "result": "1.11 log2 of fold change"}, {"measurement": "Col1a1 gene expression", "setting": "GammaA3; vs control", "result": "-1.15 log2 of fold change"}, {"measurement": "Has2 gene expression", "setting": "GammaA3; vs control", "result": "-1.09 log2 of fold change"}, {"measurement": "Itga6 gene expression", "setting": "GammaA3; vs control", "result": "1.72 log2 of fold change"}, {"measurement": "Mapk8ip1 gene expression", "setting": "GammaA3; vs control", "result": "-1.05 log2 of fold change"}, {"measurement": "Mmp3 gene expression", "setting": "GammaA3; vs control", "result": "1.52 log2 of fold change"}, {"measurement": "Mmp13 gene expression", "setting": "GammaA3; vs control", "result": "1.29 log2 of fold change"}, {"measurement": "Ngef gene expression", "setting": "GammaA3; vs control", "result": "1.56 log2 of fold change"}, {"measurement": "Tbrg4 gene expression", "setting": "GammaA3; vs control", "result": "-1.09 log2 of fold change"}, {"measurement": "Ywhaz gene expression", "setting": "GammaA3; vs control", "result": "-1.04 log2 of fold change"}, {"measurement": "Zyx gene expression", "setting": "GammaA3; vs control", "result": "-1.34 log2 of fold change"}, {"measurement": "Significantly differentially regulated genes, downregulated (number)", "setting": "A549; SAM FDR<0.01, FC>2", "result": 17}, {"measurement": "Significantly differentially regulated genes, upregulated (number)", "setting": "A549; SAM FDR<0.01, FC>2", "result": 61}, {"measurement": "Cdcp1 gene expression", "setting": "A549; vs control", "result": "1.23 log2 of fold change"}, {"measurement": "Ceacam6 gene expression", "setting": "A549; vs control", "result": "1.63 log2 of fold change"}, {"measurement": "Il8 gene expression", "setting": "A549; vs control", "result": "1.20 log2 of fold change"}, {"measurement": "Lamb3 gene expression", "setting": "A549; vs control", "result": "1.08 log2 of fold change"}, {"measurement": "Ptgs2 gene expression", "setting": "A549; vs control", "result": "1.05 log2 of fold change"}, {"measurement": "Vcan gene expression", "setting": "A549; vs control", "result": "-4.42 log2 of fold change"}, {"measurement": "Significantly differentially regulated genes, downregulated (number)", "setting": "CaCo2; SAM FDR<0.01, FC>2", "result": 55}, {"measurement": "Significantly differentially regulated genes, upregulated (number)", "setting": "CaCo2; SAM FDR<0.01, FC>2", "result": 193}, {"measurement": "Birc5 gene expression", "setting": "CaCo2; vs control", "result": "-4.36 log2 of fold change"}, {"measurement": "Cav1 gene expression", "setting": "CaCo2; vs control", "result": "1.30 log2 of fold change"}, {"measurement": "Cdkn1a gene expression", "setting": "CaCo2; vs control", "result": "1.00 log2 of fold change"}, {"measurement": "Ceacam1 gene expression", "setting": "CaCo2; vs control", "result": "1.47 log2 of fold change"}, {"measurement": "Ceacam6 gene expression", "setting": "CaCo2; vs control", "result": "1.25 log2 of fold change"}, {"measurement": "Cxcl2 gene expression", "setting": "CaCo2; vs control", "result": "1.16 log2 of fold change"}, {"measurement": "Dusp1 gene expression", "setting": "CaCo2; vs control", "result": "1.05 log2 of fold change"}, {"measurement": "Flnc gene expression", "setting": "CaCo2; vs control", "result": "1.43 log2 of fold change"}, {"measurement": "Itga2 gene expression", "setting": "CaCo2; vs control", "result": "1.02 log2 of fold change"}, {"measurement": "Jun gene expression", "setting": "CaCo2; vs control", "result": "1.51 log2 of fold change"}, {"measurement": "Lamc2 gene expression", "setting": "CaCo2; vs control", "result": "1.27 log2 of fold change"}, {"measurement": "Mtss1 gene expression", "setting": "CaCo2; vs control", "result": "-4.64 log2 of fold change"}, {"measurement": "Ptn gene expression", "setting": "CaCo2; vs control", "result": "-4.50 log2 of fold change"}, {"measurement": "Tgfb1i1 gene expression", "setting": "CaCo2; vs control", "result": "1.67 log2 of fold change"}, {"measurement": "Thbs (thrombospondin 1) gene expression", "setting": "CaCo2; vs control", "result": "-4.36 log2 of fold change"}, {"measurement": "Tnc gene expression", "setting": "CaCo2; vs control", "result": "-6.40 log2 of fold change"}, {"measurement": "Tuba1a gene expression", "setting": "CaCo2; vs control", "result": "2.27 log2 of fold change"}, {"measurement": "Significantly differentially regulated genes, downregulated (number)", "setting": "HepG2; SAM FDR<0.01, FC>2", "result": 0}, {"measurement": "Significantly differentially regulated genes, upregulated (number)", "setting": "HepG2; SAM FDR<0.01, FC>2", "result": 87}, {"measurement": "Dusp1 gene expression", "setting": "HepG2; vs control", "result": "1.56 log2 of fold change"}, {"measurement": "Hnrnpr gene expression", "setting": "HepG2; vs control", "result": "1.08 log2 of fold change"}, {"measurement": "Jun gene expression", "setting": "HepG2; vs control", "result": "1.34 log2 of fold change"}, {"measurement": "Pik3ca gene expression", "setting": "HepG2; vs control", "result": "2.01 log2 of fold change"}, {"measurement": "Ptk2 (FAK) gene expression", "setting": "HepG2; vs control", "result": "1.20 log2 of fold change"}]}
